Laboratory results published in ChEMBL document CHEMBL1201862, “PubChem BioAssay data set” (2004).
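Tested at 5 concentrations; 48 h exposure; 96-well plates; endpoints linearly interpolated, else capped at highest concentration. GI50 is the concentration that inhibits growth by half.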 Calls of active or inactive are those of the source. No stated cut-off is given here; in the data, active = GI50 up to about 1.1 µM and inactive = higher.

Columns and labels:
Assay in all cases: NCI tumour cell line growth inhibition, 48 h
CAKI-1 = tested on: CAKI-1
LXFL 529 = tested on: LXFL 529
SNB-78 = tested on: SNB-78
HOP-18 = tested on: HOP-18
XF498 = tested on: XF498
RXF 631 = tested on: RXF 631
DMS-114 = tested on: DMS-114

Measured: GI50

COc1ccc(C23C(=O)c4ccccc4N2O[C@H]2C(=O)N(c4ccccc4)C(=O)[C@H]23)cc1 (some centres not stated)
inactive: CAKI-1 > 100 µM | LXFL 529 > 100 µM | SNB-78 > 100 µM | HOP-18 > 100 µM | XF498 > 100 µM | RXF 631 > 100 µM | DMS-114 > 100 µM
